Experimental data reported in ChEMBL document CHEMBL1134074, “Identification of novel potent hydroxamic acid inhibitors of peptidyl deformylase and the importance of the hydroxamic acid functionality on inhibition” (Bioorg Med Chem Lett, 2001).
In brackets after ≈: the same amount, converted by molar mass.

Assays:
Streptococcus pneumoniae = test: Antibacterial activity against Streptococcus pneumoniae (SPNE) 9912; format: functional
Escherichia coli = test: Antibacterial activity against Escherichia coli (ECOL) 6674; format: functional
Staphylococcus aureus = test: Antibacterial activity against Staphylococcus aureus (SAUR) 9218; format: functional
[1] = test system: Staphylococcus epidermidis; test: Antibacterial activity against Staphylococcus epidermidis (SEPI) 12084; format: functional
Peptide deformylase = molecular target: T1, Peptide deformylase (Staphylococcus aureus subsp. aureus Mu50, UniProt P68825); test: Inhibition of Peptidyl deformylase (PDF)
T1 sequence (P68825 whole entry): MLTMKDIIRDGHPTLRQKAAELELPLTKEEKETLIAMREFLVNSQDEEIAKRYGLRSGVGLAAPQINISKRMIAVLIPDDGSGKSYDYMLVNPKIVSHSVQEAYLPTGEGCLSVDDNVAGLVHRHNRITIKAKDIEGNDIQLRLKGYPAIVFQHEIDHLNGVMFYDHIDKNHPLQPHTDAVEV

SMILES	MIC (Streptococcus pneumoniae)	MIC (Escherichia coli)	MIC (Staphylococcus aureus)	MIC [1]	IC50 (Peptide deformylase)
CC(=O)NO [ACETOHYDROXAMIC ACID]	> 128 µg/mL	> 128 µg/mL	> 128 µg/mL	> 128 µg/mL	> 100 µM
COc1cc(Cl)c(CC(=O)NO)cc1OC	> 32 µg/mL	> 32 µg/mL	> 32 µg/mL	> 32 µg/mL	
COc1cccc(C(NCc2cccc(C(F)(F)F)c2)C(=O)NO)c1 (stereo unspecified)	> 128 µg/mL	> 128 µg/mL	> 128 µg/mL	> 128 µg/mL	
NNC(=O)N(CCc1cccc(C(F)(F)F)c1)c1cccc2ccccc12	> 128 µg/mL	> 128 µg/mL	> 128 µg/mL	> 128 µg/mL	> 100 µM
O=C(CS)N(CCc1cccc(C(F)(F)F)c1)c1cccc2ccccc12	> 128 µg/mL	> 128 µg/mL	> 128 µg/mL	> 128 µg/mL	> 100 µM
O=C(Cc1ccc(-c2ccccc2)cc1)NO	> 128 µg/mL	> 128 µg/mL	> 128 µg/mL	> 128 µg/mL	> 50 µM
O=C(CO)N(CCc1cccc(C(F)(F)F)c1)c1cccc2ccccc12	32 µg/mL (≈ 85.7 µM)	> 128 µg/mL	32 µg/mL (≈ 85.7 µM)	> 128 µg/mL	> 100 µM
O=C(NO)N(CCc1cccc(C(F)(F)F)c1)c1cccc2ccccc12	32 µg/mL (≈ 85.5 µM)	> 128 µg/mL	32 µg/mL (≈ 85.5 µM)	32 µg/mL (≈ 85.5 µM)	
NNC(=O)C(NCc1cccc(C(F)(F)F)c1)c1cccc2ccccc12 (stereo unspecified)	32 µg/mL (≈ 85.7 µM)	> 128 µg/mL	64 µg/mL (≈ 171 µM)	128 µg/mL (≈ 343 µM)	4.1 µM
O=C(O)C(NCc1cccc(C(F)(F)F)c1)c1cccc2ccccc12 (stereo unspecified)	128 µg/mL (≈ 356 µM)	> 128 µg/mL	> 128 µg/mL	> 128 µg/mL	> 100 µM
O=C(NO)C(NCc1cccc(C(F)(F)F)c1)c1ccc(F)c(F)c1 (stereo unspecified)	> 128 µg/mL	> 128 µg/mL	> 128 µg/mL	> 128 µg/mL	0.69 µM
NC(=O)C(NCc1cccc(C(F)(F)F)c1)c1cccc2ccccc12 (stereo unspecified)	16 µg/mL (≈ 44.6 µM)	> 128 µg/mL	64 µg/mL (≈ 179 µM)	64 µg/mL (≈ 179 µM)	> 100 µM
O=C(NO)C(NCc1cccc(C(F)(F)F)c1)c1cccc2ccccc12 (stereo unspecified)	> 64 µg/mL	> 64 µg/mL	> 64 µg/mL	> 64 µg/mL	
O=C(NO)C(NCc1cccc(C(F)(F)F)c1)c1ccccc1F (stereo unspecified)	> 128 µg/mL	> 128 µg/mL	> 128 µg/mL	> 128 µg/mL	0.46 µM
